The text below walks through data of publication PMC11123956, “Nobiletin Stimulates Adrenal Hormones and Modulates the Circadian Clock in Mice” (Nutrients, 2024).

The nature of experiment [1]: Blood glucose after i.p. injection. The experiment is classed as in vivo, mice. The settings on record: 100 mg/kg, after 4 h fasting, 0-90 min. As for the experimental part: (§1) Male C57BL/6J mice (7 weeks old) were purchased from Charles River Japan (Kanagawa, Japan) and used for the serum hormone assay and RT-PCR. Male ICR mice were purchased from Tokyo Laboratory Animals Science Co., Ltd. (Tokyo, Japan), and female PERIOD2::LUCIFERASE (PER2::LUC) knock-in mice (ICR background) bred at Waseda University were used for blood glucose measurements and in vivo imaging assays, respectively. The mice were all housed under conditions of controlled temperature (23 °C ± 3 °C), humidity (50% ± 20%), and lighting (lights on from 07:00 to 19:00 at Taisho Pharmaceutical Co., Ltd. or from 08:00 to 20:00 at Waseda University). In the 24 h cycle, Zeitgeber time 0 (ZT0) was designated as the time when the lights were turned on, and ZT12 was designated as the time when the lights were turned off. […]
Serum corticosterone, adrenaline, and adreno-corticotropic hormone (ACTH) levels, and corticotropin releasing factor (CRF) in the hypothalamus, were measured using enzyme-linked immunosorbent assay (ELISA). […] Blood glucose levels were measured using a Glucose PILOT kit (Aventir Biotech, LLC, Carlsbad, CA, USA). The range of blood glucose that could be precisely measured with the kit was 20–600 mg/dL. […]

Experiment [2] has as its system Per2 mRNA. Description: Real-time RT-PCR of Per2 mRNA in peripheral tissues. The experiment is classed as in vivo, mice. The settings on record: liver, an hour after treatment. Here is the method:
as §1, with “off. All the mice were given access to food and tap water ad libitum, and nobiletin (10–100 mg/kg; purchased from FUJIFILM Wako Pure Chemical Corporation, Osaka, Japan) was administered by intraperitoneal (i.p.) injection in the vehicle (10 mL/kg body weight) containing 0.5% carboxymethyl cellulose (CMC). Rolipram (PDE4 inhibitor, FUJIFILM Wako Pure Chemical Corporation) and SR1078 (RORα/γ agonist, FUJIFILM Wako Pure Chemical Corporation) were also used for the experiment at 10 mg/kg in 0.5% CMC [12]. Mice were euthanized by rapid decapitation for whole blood samples.” for “off.”

Experiment [3] concerns the target T1, PDE5A (Homo sapiens, UniProt O76074).
T1 construct: purchased Eurofins Panlabs Discovery Services Taiwan, Ltd. (contract assay); host or cells: insect Sf9 cells
Nature of the experiment: PDE enzyme  assay, PDE5A. The experiment is classed as biochemical. As for the experimental part:
Enzyme assays for various subtypes of PDE (Table 1 and Figure 4) were conducted by Eurofins Panlabs Discovery Services Taiwan, Ltd. (New Taipei City, Taiwan). In the assays, five or six concentrations of nobiletin over five or six orders of magnitude were examined in experiments conducted in duplicate to determine the IC50 (concentration of nobiletin exerting half-maximal inhibition of control-specific activity). IC50 values were determined by nonlinear least squares regression analysis using MathIQTM (ID Business Solutions Ltd., Woking, UK). FAM-cAMP, FAM-cGMP (0.1 μM), and 100 μM [^3H]cGMP + cGMP were used for the substrate in the human recombinant insect Sf9 cells or Bovine retinal rod outer segments depending on the PDE subtype. The spectrofluorometric quantitation of fluorescein-AMP-IMAP, fluorescein-GMP-IMAP, or [^3H] guanosine was used depending on the PDE subtype. A known […] of each PDE was used as the positive control.

Each structure is given as a SMILES string.

What is called IC50 is the concentration at which inhibition is half-maximal. Read a high IC50 as weaker potency. `COc1ccc(-c2cc(=O)c3c(OC)c(OC)c(OC)c(OC)c3o2)cc1OC` [nobiletin]: the blood glucose levels entry in experiment [1] is listed as “increased”. Further, in experiment [2], the Per2 expression result was “decreased significantly”. In experiment [3], this compound had an IC50 of 14.8 µM.
